The text below walks through data of US9951011B2, “Carbazole compounds for in vivo imaging” (priority 2013, dated 2018).

The Ki is the equilibrium dissociation constant of an inhibitor or competing ligand from its target.

The structures appear in SMILES notation. Where two headings read alike, the source gives them in different places.

Assay [1] deals with T1, TSPO (Homo sapiens, UniProt P30536). The assay is described as follows: biochemical.
Method: (§1) Membrane protein was prepared from human platelets obtained from 4 donor whole blood samples. […] Platelet pellets were homogenised in 10 ml buffer 1 (0.32 mM sucrose, 5 mM Tris base, 1 mM MgCl2, pH 7.4, 4° C.). The homogenates were centrifuged at 48,000×g for 15 minutes at 4° C. in a Beckman J2-MC centrifuge. The supernatant was removed and pellets were re-suspended in at least 10 ml buffer 2 (50 mM Tris base, 1 mM MgCl2, pH 7.4, 4° C.) and washed by centrifugation at 48,000×g for 15 min at 4° C. in buffer 2. Membranes were suspended in 2 ml buffer 2 and the protein concentration was determined using Protein Assay Kit II (Bio Rad cat #500-0002). Aliquots were stored at −80° C. until use.
(§2) Aliquots of membrane suspension were thawed and homogenised with assay buffer 3 (50 mM Tris base, 140 mM NaCl, 1.5 mM MgCl2, 5 mM KCl, 1.5 mM CaCl2, pH 7.4, 37° C.). […] Non-radioactive Compound 1 was diluted on a Beckman Biomek 2000 workstation at 11 serial dilutions ranging from 1 μM to 0.01 nM. GE180 and non-radioactive Compound 2 were diluted at 11 serial dilutions ranging from 100 μM to 1 nM. Total and nonspecific binding assessments were also performed. 160 μL of platelet membranes diluted to 30 μg/mL were added to the assay plate for a final volume of 200 μL/well. Assay plates were incubated at 37° C. for at least one hour with termination of incubation by filtering onto GF/B glass fibre plates (Perkin Elmer; cat #6005177) pre-soaked in 0.1% PEI in saline for 60 minutes. Assay plates were rinsed five to six times with ice cold buffer 4 (50 mM Tris Base, 1.4 mM MgCl2, pH 7.4, 4° C.) on a Perkin Elmer Filtermate 196. Plates were then dried, the bottoms sealed, and 50 μL of MicroScint 20 (Perkin Elmer cat #6013621) was added to each well. After sealing the tops, the plates were allowed to equilibrate for at least 30 minutes and the captured radioactivity was counted on a Perkin Elmer TopCount NTX. Compound 1 and Compound 2 were used as racemates.
(§3) Compound 1 and Compound 2 were resolved into enantiomers and the competitive binding assay was performed using platelets isolated from the same 4 human donor whole blood samples as described in Example 6.
Assay [2] concerns the target T2, TSPO (Homo sapiens, UniProt P30536, T147A). Briefly: biochemical.
Method: as §1, §2, §3
In assay [3] the test system is TSPO. As to conditions: low:high affinity ratio; resolved enantiomers.
Method: as §1, §2, §3
Assay [4] has as its system TSPO. Conditions: low:high affinity ratio; Compounds 1 and 2 used as racemates.
Method: as §1
(§4) Aliquots of membrane suspension were thawed and homogenised with assay buffer 3 (50 mM Tris base, 140 mM NaCl, 1.5 mM MgCl2, 5 mM KCl, 1.5 mM CaCl2, pH 7.4, 37° C.). […] Non-radioactive Compound 1 was diluted on a Beckman Biomek 2000 workstation at 11 serial dilutions ranging from 1 μM to 0.01 nM. GE180 and non-radioactive Compound 2 were diluted at 11 serial dilutions ranging from 100 μM to 1 nM. Total and nonspecific binding assessments were also performed. 160 μL of platelet membranes diluted to 30 μg/mL were added to the assay plate for a final volume of 200 μL/well. Assay plates were incubated at 37° C. for at least one hour with termination of incubation by filtering onto GF/B glass fibre plates (Perkin Elmer; cat #6005177) pre-soaked in 0.1% PEI in saline for 60 minutes. Assay plates were rinsed five to six times with ice cold buffer 4 (50 mM Tris Base, 1.4 mM MgCl2, pH 7.4, 4° C.) on a Perkin Elmer Filtermate 196. Plates were then dried, the bottoms sealed, and 50 μL of MicroScint 20 (Perkin Elmer cat #6013621) was added to each well. After sealing the tops, the plates were allowed to equilibrate for at least 30 minutes and the captured radioactivity was counted on a Perkin Elmer TopCount NTX.
In assay [5] the test system is TSPO. As to conditions: versus [11C]PBR28; cited from earlier work.
Assay [6] has as its system TSPO. As to conditions: in vitro; LABs versus HABs; cited from earlier work.
Assay [7] has as its target T1, TSPO. Briefly: biochemical. The source holds these as a separate data set.
Method: as §1, §4
Assay [8] concerns the target T2, TSPO. The assay is described as follows: biochemical. The source holds these as a separate data set.
Method: as §1, §4

T1 sequence (P30536 2-169): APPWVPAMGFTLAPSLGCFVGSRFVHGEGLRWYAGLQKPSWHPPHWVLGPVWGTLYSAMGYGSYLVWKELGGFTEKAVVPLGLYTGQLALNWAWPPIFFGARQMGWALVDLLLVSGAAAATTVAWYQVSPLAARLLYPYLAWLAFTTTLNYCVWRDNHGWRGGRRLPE
T2 sequence (P30536 2-169 T147A): as the sequence (P30536 2-169) above, with T146A counted along it

Turning to `CC(C)N(C)C(=O)[C@@H]1CCCc2c1c1ccccc1n2CCF` [Compound 2 E2], the Ki came to 402 nM in assay [1] and 83 nM in assay [2]. Also, the “Low:High” value in assay [3] was found to be 5.

On to `CCN(CC)C(=O)[C@H]1CCCc2c1c1c(OC)cccc1n2CCF` (stereo in doubt) [GE180, 9-(2-Fluoro-ethyl)-5-methoxy-2,3,4,9-tetrahydro-1H-carbazole-4-carboxylic acid diethylamide, reference compound], for which the “Low:High” value in assay [3] is listed as 3; in assay [4] it was 15.44.

Take `CCN(Cc1ccccc1)C(=O)[C@H]1CCCc2c1c1ccccc1n2CCF` [Compound 1 E1, (S)—N-benzyl-N-ethyl-9-(2-fluoroethyl)-2,3,4,9-tetrahydro-1H-carbazole-4-carboxamide]: the Ki was 5 nM in assay [1] and 4 nM in assay [2]. Moreover, the “Low:High” value in assay [3] stood at 1.

As to `CCC(C)N(C)C(=O)c1cc2ccccc2c(-c2ccccc2Cl)n1` (stereo not drawn) [PK11195, reference compound], the “Low:High” value in assay [3] is on record as 1.

As to `CCC(C)N(C)C(=O)c1cc2ccccc2c(-c2ccccc2Cl)n1` (stereo not drawn) [[11C]PK11195], in assay [5], the “in vivo specific binding in monkey brain, lower than that reported for [11C]PBR28” value is reported as approximately 80 fold.

Regarding `COc1ccccc1CN(C(C)=O)c1cnccc1Oc1ccccc1` [[3H]PBR28], in assay [6], the “lower TSPO affinity in LABs than in HABs” value is reported as “more than 10 fold”.

Turning to `CC(C)N(C)C(=O)[C@H]1CCCc2c1c1ccccc1n2CCF` [Compound 2 E1, (S)—N-isopropyl-N-methyl-9-(2-fluoroethyl)-2,3,4,9-tetrahydro-1H-carbazole-4-carboxamide], the results for the Ki in assay [1] and in assay [2] were 23 nM and 24 nM, respectively. Also, in assay [3], the “Low:High” value was determined as 1.

`CCN(Cc1ccccc1)C(=O)[C@@H]1CCCc2c1c1ccccc1n2CCF` [Compound 1 E2]: the results for the Ki in assay [1] and in assay [2] were 125 nM and 4 nM, respectively. In assay [3], the “Low:High” value is listed as 32.

On to `CCN(Cc1ccccc1)C(=O)[C@H]1CCCc2c1c1ccccc1n2CCF` (racemic) [Compound 1, (S)—N-benzyl-N-ethyl-9-(2-fluoroethyl)-2,3,4,9-tetrahydro-1H-carbazole-4-carboxamide], for which the results for the Ki in assay [7] and in assay [8] were 5.98 nM and 1.85 nM, respectively. Besides, the “Low:High” value in assay [4] stood at 3.24.

`CC(C)N(C)C(=O)[C@H]1CCCc2c1c1ccccc1n2CCF` (racemic) [Compound 2, (S)—N-isopropyl-N-methyl-9-(2-fluoroethyl)-2,3,4,9-tetrahydro-1H-carbazole-4-carboxamide]: the Ki in assay [7] was found to be 44.9 nM; in assay [8], 43.8 nM. In addition, the “Low:High” value in assay [4] was 1.02.

As to `COc1ccccc1CN(C(C)=O)c1cnccc1Oc1ccccc1` [PBR28, N-(2-methoxybenzyl)-N-(4-phenoxypyridin-3-yl)acetamide, reference compound], in assay [3], the “Low:High” value worked out at 28.
